Test results as given in US20120152149A1, “USE OF 1,3-DIOLS AS BIOCIDES” (BASF SE, priority 2009, published 2012).
Like-named read-outs stand apart in the source and are kept apart here.

How the values were obtained:
Assay type in all cases: cell-based
A. niger ATCC 16404 [1] = experiment: Preservation stress test, example formulation 2 (roll-on deodorant formulation); details: 1% active substance
Procedure: (§1) Preservation stress tests (PSTs) were carried out in order to determine the preserving activity of the diols. In the preservation stress test, this is simulated through artificial loadings with microorganisms. These can either be inoculated as mixed population or individually in mixtures independent of one another. The inoculated product samples are incubated under defined conditions and, after defined times, samples are taken in order to determine the germ loading. In the case of adequate preservation, the number of microorganisms should, depending on the type, either decrease or remain constant in order to satisfy the requirements specified, e.g. in Ph. Eur. 6.0. To investigate the preserving effect of the diols, application-typical amounts of the diols were incorporated into example formulations. […] [table] These example formulations were used to prepare various mixtures which each comprised 1% active substance or comprised water instead of the active substance as placebo mixtures. These mixtures were in each case inoculated with the test germs such that a germ loading of 10^5-10^6 CFU/g was present in the test mixture. The bacteria were either used individually for the inoculation or as a mixed culture. To determine the starting germ count, immediately after inoculation, an aliquot was taken, diluted in dilution medium (phosphate buffer, 0.07 molar pH 7.4 (+/−0.2), with 1% Tween 80+0.3% soya lecithin), and the surviving germ count was determined in the dilution stages 10^−1 to 10^−3. The inoculated product samples then incubated for a total of 28 d at 20-25° C. After 2 d, 7 d, 14 d and after 28 d, aliquots were taken and diluted in dilution medium (phosphate buffer, 0.07 molar pH 7.4 (+/−0.2), with 1% Tween 80+0.3% soya lecithin). The surviving germ counts were determined in the dilution stages 10^−1 to 10^−4. The reference point taken for determining the reduction in germ count was the respective initial value of the sample. The results were given as logarithmic reductions.

S. aureus ATCC 6538 = experiment: as above; details: 1% active substance
Procedure: as §1

C. albicans ATCC 10231 [2] = experiment: as above; details: 1% active substance
Procedure: as §1

E. coli ATCC 10536 = experiment: as above; details: 1% active substance
Procedure: as §1

P. aeruginosa ATCC 15442 = experiment: as above; details: 1% active substance
Procedure: as §1

A. niger ATCC 16404 [3] = experiment: Preservation stress test, example formulation 1 (standard emulsion O/W); details: 1% active substance
Procedure: as §1

C. albicans ATCC 10231 [4] = experiment: as above; details: 1% active substance
Procedure: as §1

S. aureus NCIMB 9578 = experiment: Microstatic activity, MIC in tryptone soy broth; details: Staphylococcus aureus, NCIMB9578, 30° C., 48 hours
Procedure: (§2) For this, in each case a 40 percent strength by weight solution of a diol in propylene glycol was prepared at 60° C. This solution was diluted with a double-strength soy solution (double-strength tryptone soy broth) as nutrient medium in the volume ratio 1:1. Further dilution with soy solution produced solutions with the following concentrations: 400 000 ppm (40%), 200 000 ppm (20%), 100 000 ppm (10%), 50 000 ppm (5%), 25 000 ppm (2.5%), 12 500 ppm (1.25%), 6250 ppm (0.625%), 3125 ppm (0.3125%). Pure soy solution was used as negative control. The positive control used was a solution of 5 ml of soy solution which has been treated with 0.1 ml of the respective microorganism. The test solutions consisted of 5 ml of the above-described soy solutions of the diols in the particular concentration which have been mixed with 0.1 ml of the respective microorganism. The samples and controls were incubated in the case of the bacteria at 30° C. for 48 hours, and in the case of fungi over 5 days at 25° C. In each case, the MIC (Minimum Inhibitory Concentration) value was determined. This value indicates the minimum concentration above which the growth of the microorganisms was visibly hindered compared to the corresponding sample without addition of the diol. […] For example, this was evident from the occurrence of clouding or visible growth of the microorganism. […] The MIC value stated is a range between the next higher concentration of a positive test and the same and/or lower concentration of a first negative test.

A. niger IMI 149007 = experiment: Microstatic activity, MIC in tryptone soy broth; details: Aspergillus niger, IMI149007, 120 h, 25° C., 5 days
Procedure: as §2

[5] = test system: P. aeruginosa NCIMB 10421; experiment: Microstatic activity, MIC in tryptone soy broth; details: Pseudomonas aeruginosa, NCIMB10421, 30° C., 48 hours
Procedure: as §2

E. coli NCIMB 8545 = experiment: Microstatic activity, MIC in tryptone soy broth; details: Escherichia coli, NCIMB8545, 30° C., 48 hours
Procedure: as §2

C. albicans NCPF 3179 = experiment: Microstatic activity, MIC in tryptone soy broth; details: Candida albicans, NCPF3179, 120 h, 25° C., 5 days
Procedure: as §2

P. vulgaris NCIMB 4175 = experiment: Microstatic activity, MIC in tryptone soy broth; details: Proteus vulgaris, NCIMB4175, 30° C., 48 hours
Procedure: as §2

[6] = lower limit of MIC range, read-out: MIC value (ppm of diol), from
[7] = upper limit of MIC range, read-out: MIC value (ppm of diol), to

SMILES	Microbicidal activity given as logarithmic reduction in germ count (A. niger ATCC 16404 [1]; 48 h) [log. Red.]	Microbicidal activity given as logarithmic reduction in germ count (A. niger ATCC 16404 [1]; 7 d) [log. Red.]	Microbicidal activity given as logarithmic reduction in germ count (A. niger ATCC 16404 [1]; 14 d) [log. Red.]	Microbicidal activity given as logarithmic reduction in germ count (S. aureus ATCC 6538; 48 h)	Microbicidal activity given as logarithmic reduction in germ count (S. aureus ATCC 6538; 7 d) [log. Red.]	Microbicidal activity given as logarithmic reduction in germ count (S. aureus ATCC 6538; 14 d) [log. Red.]	Microbicidal activity given as logarithmic reduction in germ count (S. aureus ATCC 6538; 28 d) [log. Red.]	Microbicidal activity given as logarithmic reduction in germ count (C. albicans ATCC 10231 [2]; 48 h) [log. Red.]	Microbicidal activity given as logarithmic reduction in germ count (C. albicans ATCC 10231 [2]; 7 d) [log. Red.]	Microbicidal activity given as logarithmic reduction in germ count (C. albicans ATCC 10231 [2]; 14 d) [log. Red.]	Microbicidal activity given as logarithmic reduction in germ count (E. coli ATCC 10536; 48 h) [log. Red.]	Microbicidal activity given as logarithmic reduction in germ count (E. coli ATCC 10536; 7 d) [log. Red.]	Microbicidal activity given as logarithmic reduction in germ count (E. coli ATCC 10536; 14 d) [log. Red.]	Microbicidal activity given as logarithmic reduction in germ count (E. coli ATCC 10536; 28 d) [log. Red.]	Microbicidal activity given as logarithmic reduction in germ count (P. aeruginosa ATCC 15442; 48 h) [log. Red.]	Microbicidal activity given as logarithmic reduction in germ count (P. aeruginosa ATCC 15442; 7 d)	Microbicidal activity given as logarithmic reduction in germ count (P. aeruginosa ATCC 15442; 14 d) [log. Red.]	Microbicidal activity given as logarithmic reduction in germ count (P. aeruginosa ATCC 15442; 28 d) [log. Red.]	Microbicidal activity given as logarithmic reduction in germ count (A. niger ATCC 16404 [3]; 48 h) [log. Red.]	Microbicidal activity given as logarithmic reduction in germ count (A. niger ATCC 16404 [3]; 7 d) [log. Red.]	further results
OCC1(CO)CCCC1 [DMCP, 1,1-dimethylolcyclopentane]	0	0	0	≧3 log. Red.	5	5	5	0	0	0	1	3	5	5	1	≧3 log. Red.	5	5	2	1	Microbicidal activity given as logarithmic reduction in germ count (A. niger ATCC 16404 [3]; 14 d): 2 log. Red.; Microbicidal activity given as logarithmic reduction in germ count (A. niger ATCC 16404 [3]; 28 d): 2 log. Red.; Microbicidal activity given as logarithmic reduction in germ count (C. albicans ATCC 10231 [4]; 48 h): ≧3 log. Red.; Microbicidal activity given as logarithmic reduction in germ count (C. albicans ATCC 10231 [4]; 7 d): 5 log. Red.; Microbicidal activity given as logarithmic reduction in germ count (C. albicans ATCC 10231 [4]; 14 d): 5 log. Red.; Microbicidal activity given as logarithmic reduction in germ count (C. albicans ATCC 10231 [4]; 28 d): 5 log. Red.; MIC (S. aureus NCIMB 9578; [6]): > 3120 µg/mL; MIC (S. aureus NCIMB 9578; [7]): ≤ 6250 µg/mL; MIC (A. niger IMI 149007; [6]): > 50 mg/mL; MIC (A. niger IMI 149007; [7]): ≤ 100 mg/mL; MIC [5, 6]: > 12.5 mg/mL; MIC [5, 7]: ≤ 25 mg/mL; MIC (E. coli NCIMB 8545; [6]): > 3120 µg/mL; MIC (E. coli NCIMB 8545; [7]): ≤ 6250 µg/mL; MIC (C. albicans NCPF 3179; [6]): > 25 mg/mL; MIC (C. albicans NCPF 3179; [7]): ≤ 50 mg/mL; MIC (P. vulgaris NCIMB 4175; [6]): > 12.5 mg/mL; MIC (P. vulgaris NCIMB 4175; [7]): ≤ 25 mg/mL
CC(C)C(C)(CO)CO [IMPD, 2-isopropyl-2-methylpropane-1,3-diol]	0	0	0	≧3 log. Red.	5	5	5	0	0	0	3	5	5	5	1	≧3 log. Red.	5	5	1	1	Microbicidal activity given as logarithmic reduction in germ count (A. niger ATCC 16404 [3]; 14 d): 2 log. Red.; Microbicidal activity given as logarithmic reduction in germ count (A. niger ATCC 16404 [3]; 28 d): 3 log. Red.; Microbicidal activity given as logarithmic reduction in germ count (C. albicans ATCC 10231 [4]; 48 h): 1 log. Red.; Microbicidal activity given as logarithmic reduction in germ count (C. albicans ATCC 10231 [4]; 7 d): ≧3 log. Red.; Microbicidal activity given as logarithmic reduction in germ count (C. albicans ATCC 10231 [4]; 14 d): 5 log. Red.; Microbicidal activity given as logarithmic reduction in germ count (C. albicans ATCC 10231 [4]; 28 d): 5 log. Red.; MIC (S. aureus NCIMB 9578; [6]): > 12500 µg/mL; MIC (S. aureus NCIMB 9578; [7]): ≤ 25000 µg/mL; MIC (A. niger IMI 149007; [6]): > 25 mg/mL; MIC (A. niger IMI 149007; [7]): ≤ 50 mg/mL; MIC [5, 6]: > 12.5 mg/mL; MIC [5, 7]: ≤ 25 mg/mL; MIC (E. coli NCIMB 8545; [6]): > 6250 µg/mL; MIC (E. coli NCIMB 8545; [7]): ≤ 12500 µg/mL; MIC (C. albicans NCPF 3179; [6]): > 25 mg/mL; MIC (C. albicans NCPF 3179; [7]): ≤ 50 mg/mL; MIC (P. vulgaris NCIMB 4175; [6]): > 6.25 mg/mL; MIC (P. vulgaris NCIMB 4175; [7]): ≤ 12.5 mg/mL
